Reference: US20220205982A1 (CHILDREN'S HOSPITAL MEDICAL CENTER, priority 2019, published 2022)

Assays:
[1] = Real-time PK study of melphalan in whole blood by PS-MS/MS in patients undergoing HSCT; format: in vivo; conditions: human, intravenous
Method: Patients undergoing HSCT were administered by intravenous infusion a low dose of melphalan (referred to as the ‘test’ dose) to first determine each patient's individualized pharmacokinetics of the drug. After that the personalized optimal full dose was calculated from these measurements and then administered. The test dose equated to 10% of the expected standard full dose for each patient. Blood samples for pharmacokinetic measurement were collected after the test dose and again after the full standard dose of melphalan. Samples were collected at baseline, 5-10 mins before drug infusion, and then 5 min, 15 min, 30 min, 45 min, 1 h, 2h, 2.5h, 4h, and 6h post-infusion. […] Plasma samples from the same blood draw were also obtained after centrifugation at 3000 rpm for 15 min and stored at −80° C. degree until analyzed by both PS-MS/MS and LC-ESI-MS/MS. […]
PS-MS/MS was performed on an automated PS ion source (Prosolia, Inc. Indianapolis, Ind.) interfaced with a TSQ Quantum Ultra mass spectrometer (Thermo Scientific, San Jose, Calif.). […] A total of 50 scans in positive ion mode were acquired over 1 min for each m/z transition monitored. The transitions m/z 305.3 →246.2 for melphalan and the corresponding transition m/z 313.3→254.2 for the I.S. were used for quantification, while the transition m/z 305.3→194.2 served as a qualifier for melphalan confirmation. […]

[2] = PK of melphalan in plasma by ESI-LC-MS/MS in patients undergoing HSCT; format: in vivo; conditions: human, intravenous
Method: Patients undergoing HSCT were administered by intravenous infusion a low dose of melphalan (referred to as the ‘test’ dose) to first determine each patient's individualized pharmacokinetics of the drug. After that the personalized optimal full dose was calculated from these measurements and then administered. The test dose equated to 10% of the expected standard full dose for each patient. Blood samples for pharmacokinetic measurement were collected after the test dose and again after the full standard dose of melphalan. Samples were collected at baseline, 5-10 mins before drug infusion, and then 5 min, 15 min, 30 min, 45 min, 1 h, 2h, 2.5h, 4h, and 6h post-infusion. The blood samples were collected on ice and immediately transferred to the lab for PS-MS/MS analysis after collection to minimize drug degradation. Plasma samples from the same blood draw were also obtained after centrifugation at 3000 rpm for 15 min and stored at −80° C. degree until analyzed by both PS-MS/MS and LC-ESI-MS/MS.
Each patient's pharmacokinetic profile was determined using WinNonlin v6.4 (Pharsight, Mountain View, Calif.). […]
The PS-MS\MS method was validated in accordance with the FDA guidance for Bioanalytical Method Validation (fda.gov/downloads/Drugs/Guidance/ucm070107.pdf, May 2011), and Bansa S, et al., AAPS J., 2007, 9, 109-114. Specifically, three analytical runs were processed and analyzed to assess sensitivity, reproducibility, accuracy and precision. […] The assay accuracy was evaluated by comparing results obtained by PS-MS/MS to those obtained by a validated in-house LC-MS/MS melphalan assay for the same samples, wherein melphalan samples were measured by liquid chromatography-tandem mass spectrometry (LC-MS/MS) with selected-reaction monitoring and with the use of stable isotopic-labeled [2H8]-melphalan as the internal standard. Samples were analyzed with the LC20AD HPLC system (Shimadzu) coupled to the TSQ Quantum Ultra Triple Quadrupole Mass Spectrometer (Thermo Scientific). […]

[3] = ambient temperature; hydrolyzed to monohydroxymelphalan, then dihydroxymelphalan; cited from earlier work

N[C@@H](Cc1ccc(N(CCCl)CCCl)cc1)C(=O)O [melphalan, 4-[Bis(2-chloroethyl)amino]-L-phenylalanine] gave an AUC ([1]; 10 % of the expected standard full dose, lower test doses, PS-MS/MS, n=4, read-out: calculated mean AUC) of 410 ± 230 ng·h/mL, an AUC ([1]; full dose, PS-MS/MS method, n=5, read-out: calculated mean AUC) of 4900 ± 1500 ng·h/mL and an AUC ([2]; 10 % of the expected standard full dose, lower test doses, ESI-LC-MS/MS, n=4, read-out: calculated mean AUC) of 430 ± 210 ng·h/mL. The AUC ([2]; Full Dose, individual patients and mean row, read-out: ESI-LC-MS/MS Plasma AUC) was 3900 ng·h/mL, the AUC ([2]; full dose, ESI-LC-MS/MS method, n=5, read-out: calculated mean AUC) was 4300 ± 1000 ng·h/mL and the “stability in blood and plasma” value [3] was “unstable”.
